Experiments:
NK1R [1] = target: T1, NK1R (Homo sapiens, UniProt P25103); assay: IP accumulation assay, NK1R activation (HEK293-T cells); assay type: cell-based; settings: HEK293-T cells transfected with NK1R, 1 h at 37 °C, mean ± SEM (n = 3)
T1 construct: host or cells: HEK293-T
From the text: (§1) pcDNA mammalian expression vectors encoding human NK3R (GenBank accession number: AY462098), NK2R (GenBank accession number: AY322545), NK1R (GenBank accession number: AY462099) and MRGPRX2 (GenBank accession number: NM_054030) were obtained from the Bloomsburg University cDNA Resource Center (www.cdna.org [accessed on 18 October 2018]). The NK1R, NK2R and NK3R vectors included an N-terminal 3xHA epitope tag. The empty vector, pcDNA3.1, was obtained from Thermo Fisher Scientific (Waltham, MA, USA). […] Talnetant was kindly supplied by Dr Mike Trower (NeRRe Therapeutics, Stevenage, UK).
(§2) Modified human embryonic kidney cells (HEK293-T; American Tissue and Cell Culture Collection), which provide a ‘blank’ background (with little/no endogenous tachykinin receptor nor MRGPRX2 expression) and stably express large T-antigen for optimal expression of exogenous proteins, were utilised. […]
(§3) The tachykinin receptors elicit intracellular signalling responses primarily through coupling to, and the activation of, Gαq/11 G proteins. […] These can be isolated using ion exchange chromatography and their radioactivity measured, with the amount of radiolabelled IP generated (i.e., the level of radioactivity measured) being proportional to the signalling activity of the receptor [48]. […]

[2] = ref [29]; cited from earlier work
From the text: In glioblastoma multiforme NK1Rs are believed to be highly expressed on the tumour cells and also within the tumour neovasculature, conferring the ability to concurrently target vascular and neoplastic structures. […] However, its therapeutic effectiveness is fairly constra ...

[3] = design: method as in PMID 31480582; settings: ref [19]; cited from earlier work
[4] = design: method as in PMID 31480582; settings: ref [19]; cited from earlier work; remark: listed apart in the source
NK3R [5] = target: T2, NK3R (Homo sapiens, UniProt P29371); assay: IP accumulation assay, NK3R activation (HEK293-T cells); assay type: cell-based; settings: 1 µM SP; Supplemental Figure S3, % of cognate native ligand (NKB) response; single experiment (n=1); also ref [11]
T2 construct: host or cells: HEK293-T
T2 sequence (P29371 1-465): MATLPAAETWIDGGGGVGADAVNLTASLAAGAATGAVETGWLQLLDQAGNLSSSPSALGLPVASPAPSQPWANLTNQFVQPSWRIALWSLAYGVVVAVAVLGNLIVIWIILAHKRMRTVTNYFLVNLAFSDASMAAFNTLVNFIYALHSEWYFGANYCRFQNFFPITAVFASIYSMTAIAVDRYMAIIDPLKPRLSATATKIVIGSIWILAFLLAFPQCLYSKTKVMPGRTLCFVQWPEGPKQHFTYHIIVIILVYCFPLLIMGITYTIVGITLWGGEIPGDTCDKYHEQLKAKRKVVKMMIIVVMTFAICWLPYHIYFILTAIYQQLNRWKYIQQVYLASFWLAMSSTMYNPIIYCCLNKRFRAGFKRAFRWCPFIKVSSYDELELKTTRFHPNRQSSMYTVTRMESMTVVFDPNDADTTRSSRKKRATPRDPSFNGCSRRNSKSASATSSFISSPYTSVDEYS
From the text: as §1, §2, §3

NK1R [6] = settings: native tachykinins; ref [11],[13]; cited from earlier work
[7] = system: all three tachykinin receptors (NK1R, NK2R, NK3R); settings: albeit with differing potencies; ref [11],[13]; cited from earlier work
MRGPRX2 = settings: ref [14]; cited from earlier work
From the text: Glioblastoma multiforme is one of the most common and most aggressive forms of central nervous system tumour and, despite therapeutic advances, it remains largely incurable. […] SP is a member of the tachykinin family of neuropeptides, of which the other classical members are neurokinin-A (NKA) and ...

NK3R [8] = target: T2, NK3R; assay: NK3R antagonism, IP accumulation assay; assay type: cell-based; settings: 1 µM compound, 30 min pre-incubation at 37 °C, then 30 nM NKB 1 h; Figure 4; n = 4 (talnetant: two experiments)
From the text: as §1
Modified human embryonic kidney cells (HEK293-T; American Tissue and Cell Culture Collection), which provide a ‘blank’ background (with little/no endogenous tachykinin receptor nor MRGPRX2 expression) and stably express large T-antigen for optimal expression of exogenous proteins, were utilised. Cells were cultured in a humidified atmosphere at 37 °C with 5% CO2 in Dulbecco’s Modified Eagle Medium containing GlutaMAX™ (DMEM) (Life Technologies, Carlsbad, CA, USA) supplemented with 10% foetal calf serum (FCS) (Life Technologies, Carlsbad, CA, USA). Cells were passaged regularly to maintain them at less than 80% confluence. […]

NK3R [9] = system: NK3R; design: method as in PMID 9190866; settings: ref [49]; cited from earlier work
Description: For single-concentration analyses, cells were incubated with 1 µM [NK1R, NK2R, NK3R and empty vector) or 10 µM [MRGPRX2 and empty vector]

T1 sequence (P25103 whole entry): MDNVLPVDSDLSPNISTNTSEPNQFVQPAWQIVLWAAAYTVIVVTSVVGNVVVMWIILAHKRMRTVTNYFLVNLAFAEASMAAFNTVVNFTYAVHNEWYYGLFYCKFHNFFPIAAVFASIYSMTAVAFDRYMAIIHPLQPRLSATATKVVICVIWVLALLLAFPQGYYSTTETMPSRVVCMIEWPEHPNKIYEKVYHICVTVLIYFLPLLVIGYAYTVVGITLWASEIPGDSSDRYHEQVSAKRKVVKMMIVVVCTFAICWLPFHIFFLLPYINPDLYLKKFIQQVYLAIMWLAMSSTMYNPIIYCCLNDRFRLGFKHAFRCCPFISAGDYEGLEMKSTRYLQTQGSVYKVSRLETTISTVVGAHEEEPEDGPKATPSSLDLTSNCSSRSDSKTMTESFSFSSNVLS

## CC(C)C[C@H](NC(=O)CNC(=O)[C@H](Cc1cccs1)NC(=O)[C@H](Cc1ccccc1)NC(=O)[C@H](CCC(N)=O)NC(=O)[C@H](CCC(N)=O)NC(=O)[C@@H]1CCCN1C(=O)[C@H](CCCCN)NC(=O)[C@@H]1CCCN1C(=O)[C@H](CCCNC(=N)N)NC(=O)CN1CCN(CC(=O)O)CCN(CC(=O)O)CCN(CC(=O)O)CC1)C(=O)N[C@@H](CCS(C)(=O)=O)C(N)=O [DOTA-[Thi^8,Met(O2)^11]SP, 1,4,7,10-tetraazacyclododecane-1,4,7,10-tetraacetic acid-[Thi^8,Met(O2)^11]-SP]
NK1R [1]; HEK-293T, Table 2, % of the maximal response elicited by SP (Figure 3)
  Emax: 89 ± 1%
NK1R [1]; Table 2, comparison of SP with DOTA-[Thi8,Met(O2)11]SP
  EC50: 3.31 nM
[2]
  metabolic stability: metabolically stable
[3]
  lipophilicity compared to native SP: increased lipophilicity
[4]
  in vivo half-life compared to native SP: increased lipophilicity and in vivo half-life

## CSCC[C@H](NC(=O)[C@H](CC(C)C)NC(=O)CNC(=O)[C@H](Cc1ccccc1)NC(=O)[C@H](Cc1ccccc1)NC(=O)[C@H](CCC(N)=O)NC(=O)[C@H](CCC(N)=O)NC(=O)[C@@H]1CCCN1C(=O)[C@H](CCCCN)NC(=O)[C@@H]1CCCN1C(=O)[C@@H](N)CCCNC(=N)N)C(N)=O [SP, Substance P]
NK3R [5]
  NK3R response to SP: able to elicit a response
NK1R [6]
  affinity for NK1R: highest affinity for NK1R
[7]
  agonism at all three tachykinin receptors: full agonists
MRGPRX2
  agonism at MRGPRX2: low potency agonist

## CC[C@H](NC(=O)c1c(O)c(-c2ccccc2)nc2ccccc12)c1ccccc1 [talnetant, (S)-N-(1-phenylpropyl)-3-hydroxy-2-phenylquinoline-4-carboxamide]
NK3R [8]
  inhibition of NK3R activation: NKB-induced NK3R activation was completely abolished
NK3R [9]
  NK3R antagonism: non-peptide antagonist of the NK3R
